# Assay results reported in US10377770B2 (Novartis AG, priority 2015, dated 2019).
# Molecular target: C-Raf FL (full length CRAF with Y340E and Y341E activating mutations, co-expressed with h14-3-3 zeta) (Homo sapiens (Human), UniProt P04049, Y340E/Y341E)
# Experiment: In vitro Raf activity determination, AlphaScreen p-MEK readout, c-Raf (C-Raf FL)
# Type: biochemical
# Details: c-Raf approximately 4 nM, ATP 1 μM, pre-incubation 60 minutes, reaction 1 hour
# In short: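 Full-length C-Raf (~4 nM) pre-incubated 60 min at room temperature with compound and kinase-dead biotinylated MEK1 (~10 nM) in Tris pH 7.5, 15 mM MgCl2, BSA, DTT. Reaction started with 1 μM ATP and run 1 h at room temperature. Phospho-MEK detected by AlphaScreen with anti-p-MEK antibody.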
# Chain of C-Raf FL (full length CRAF with Y340E and Y341E activating mutations, co-expressed with h14-3-3 zeta) (P04049 whole entry Y340E/Y341E): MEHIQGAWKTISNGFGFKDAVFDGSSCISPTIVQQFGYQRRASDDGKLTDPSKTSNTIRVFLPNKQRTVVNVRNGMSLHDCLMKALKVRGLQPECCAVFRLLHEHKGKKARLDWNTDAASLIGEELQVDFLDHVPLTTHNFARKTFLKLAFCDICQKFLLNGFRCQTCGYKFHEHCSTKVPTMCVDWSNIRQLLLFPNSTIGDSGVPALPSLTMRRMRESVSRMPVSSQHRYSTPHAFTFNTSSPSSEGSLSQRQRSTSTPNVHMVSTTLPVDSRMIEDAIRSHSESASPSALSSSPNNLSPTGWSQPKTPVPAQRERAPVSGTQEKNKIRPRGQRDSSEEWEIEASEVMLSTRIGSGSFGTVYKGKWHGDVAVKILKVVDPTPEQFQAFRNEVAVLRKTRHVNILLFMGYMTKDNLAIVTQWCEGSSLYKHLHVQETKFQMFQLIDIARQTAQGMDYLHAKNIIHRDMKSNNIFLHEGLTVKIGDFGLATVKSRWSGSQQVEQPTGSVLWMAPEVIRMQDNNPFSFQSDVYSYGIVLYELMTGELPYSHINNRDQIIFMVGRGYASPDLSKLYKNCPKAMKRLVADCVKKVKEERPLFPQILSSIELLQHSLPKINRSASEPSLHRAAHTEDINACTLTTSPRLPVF
# Chain of C-Raf FL (full length CRAF with Y340E and Y341E activating mutations, co-expressed with h14-3-3 zeta) (P63104 whole entry partner): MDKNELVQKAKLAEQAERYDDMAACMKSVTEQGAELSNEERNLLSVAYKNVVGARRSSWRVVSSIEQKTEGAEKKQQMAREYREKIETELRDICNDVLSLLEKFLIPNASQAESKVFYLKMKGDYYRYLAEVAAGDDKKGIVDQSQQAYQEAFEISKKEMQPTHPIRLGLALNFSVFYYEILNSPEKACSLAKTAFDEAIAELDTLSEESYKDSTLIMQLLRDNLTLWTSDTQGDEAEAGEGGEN
row,Structure (SMILES),IC50 [pM]
1,"Cc1ccc(NC(=O)c2ccnc(C(C)(F)F)c2)cc1-c1cc2c(nn1)OC(C)(C)[C@H]1COCCN21 [Example 138, (R)-2-(1,1-Difluoroethyl)-N-(3-(6,6-dimethyl-6a,7,9,10-tetrahydro-6H-[1,4]oxazino[4,3-d]pyridazino[3,4-b][1,4]oxazin-2-yl)-4-methylphenyl)isonicotinamide]",590
2,"Cc1ccc(NC(=O)c2ccnc(C(C)(C)F)c2)cc1-c1cnc2c(c1)N1CCOC[C@H]1C[C@H]2O [Example 142, 2-(2-fluoropropan-2-yl)-N-(3-((4aR,6R)-6-hydroxy-1,2,4,4a,5,6-hexahydro-[1,4]oxazino[4,3-a][1,5]naphthyridin-9-yl)-4-methylphenyl)isonicotinamide]",21
3,"Cc1ccc(NC(=O)c2ccnc(C(C)(C)F)c2)cc1-c1cnc2c(c1)N1CCOC[C@@H]1C[C@@H]2O [Example 143, 2-(2-fluoropropan-2-yl)-N-(3-((4aS,6S)-6-hydroxy-1,2,4,4a,5,6-hexahydro-[1,4]oxazino[4,3 a][1,5]naphthyridin 9-yl)-4-methylphenyl)isonicotinamide]",8.8
4,"Cc1ccc(NC(=O)c2cncc(C(F)(F)F)c2)cc1-c1cnc2c(c1)N1CCOC[C@H]1C[C@H]2O [Example 145, N-(3-((4aR,6R)-6-hydroxy-1,2,4,4a,5,6-hexahydro-[1,4]oxazino[4,3-a][1,5]naphthyridin-9-yl)-4-methylphenyl)-5-(trifluoromethyl)nicotinamide]",17
5,"Cc1ccc(NC(=O)c2cncc(C(F)(F)F)c2)cc1-c1cnc2c(c1)N1CCOC[C@@H]1C[C@@H]2O [Example 146, N-(3-((4aS,6S)-6-hydroxy-1,2,4,4a,5,6-hexahydro-[1,4]oxazino[4,3-a][1,5]naphthyridin-9-yl)-4-methylphenyl)-5-(trifluoromethyl)nicotinamide]",12
6,"Cc1ccc(NC(=O)c2ccnc(C(C)(C)C#N)c2)cc1-c1cnc2c(c1)N1CCOC[C@H]1C[C@H]2O [Example 150, 2-(2-cyanopropan-2-yl)-N-(3-((4aR,6R)-6-hydroxy-1,2,4,4a,5,6-hexahydro-[1,4]oxazino[4,3-a][1,5]naphthyridin-9-yl)-4-methylphenyl)isonicotinamide]",79
7,"Cc1ccc(NC(=O)c2ccnc(C(C)(C)C#N)c2)cc1-c1cnc2c(c1)N1CCOC[C@@H]1C[C@@H]2O [Example 151, 2-(2-cyanopropan-2-yl)-N-(3-((4aS,6S)-6-hydroxy-1,2,4,4a,5,6-hexahydro-[1,4]oxazino[4,3-a][1,5]naphthyridin-9-yl)-4-methylphenyl)isonicotinamide]",14
8,"Cc1ccc(NC(=O)c2ccnc(C(F)(F)F)c2)cc1-c1cnc2c(c1)N1CCOC[C@H]1C1(COC1)C2 [Example 154, (R)-N-(4-methyl-3-(1′,2′,4′,4a′-tetrahydro-6′H-spiro[oxetane-3,5′-[1,4]oxazino[4,3-a][1,5]naphthyridin]-9′-yl)phenyl)-2-(trifluoromethyl)isonicotinamide]",63
9,"Cc1ccc(NC(=O)c2ccnc(C(F)(F)F)c2)cc1-c1cnc2c(c1)N1CCOC[C@@H]1C1(COC1)C2 [Example 155, (S)-N-(4-methyl-3-(1′,2′,4′,4a′-tetrahydro-6′H-spiro[oxetane-3,5′-[1,4]oxazino[4,3-a][1,5]naphthyridin]-9′-yl)phenyl)-2-(trifluoromethyl)isonicotinamide]",360
10,"Cc1ccc(NC(=O)c2ccnc(C(C)(F)F)c2)cc1-c1cnc2c(c1)N1CCOC[C@H]1C(C)(C)[C@H]2O [Example 161, 2-(1,1-difluoroethyl)-N-(3-((4aR,6R)-6-hydroxy-5,5-dimethyl-1,2,4,4a,5,6-hexahydro-[1,4]oxazino[4,3-a][1,5]naphthyridin-9-yl)-4-methylphenyl)isonicotinamide]",80
11,"Cc1ccc(NC(=O)c2ccnc(C(C)(F)F)c2)cc1-c1cnc2c(c1)N1CCOC[C@@H]1C(F)(F)[C@@H]2O [Example 162, N-(3-((4aR,6R)-5,5-difluoro-6-hydroxy-1,2,4,4a,5,6-hexahydro-[1,4]oxazino[4,3-a][1,5]naphthyridin-9-yl)-4-methylphenyl)-2-(1,1-difluoroethyl)isonicotinamide]",93
12,"Cc1ccc(NC(=O)c2ccnc(C(C)(F)F)c2)cc1-c1cnc2c(c1)N1CCOC[C@H]1C(F)(F)[C@H]2O [Example 164, N-(3-((4aS,6S)-5,5-difluoro-6-hydroxy-1,2,4,4a,5,6-hexahydro-[1,4]oxazino[4,3-a][1,5]naphthyridin-9-yl)-4-methylphenyl)-2-(1,1-difluoroethyl)isonicotinamide]",430
13,"Cc1ccc(NC(=O)c2ccnc(C(C)(F)F)c2)cc1-c1cnc2c(c1)N1CCOC[C@@H]1C(F)(F)[C@@H]2O [Example 165, N-(3-((4aR,6R)-5,5-difluoro-6-hydroxy-1,2,4,4a,5,6-hexahydro-[1,4]oxazino[4,3-a][1,5]naphthyridin-9-yl)-4-methylphenyl)-2-(1,1-difluoroethyl)isonicotinamide]",620
14,"Cc1ccc(NC(=O)c2ccnc(C(F)(F)F)c2)cc1-c1cnc2c(c1)N1CCOC[C@H]1C(F)(F)[C@H]2O [Example 167, N-(3-((4aS,6S)-5,5-difluoro-6-hydroxy-1,2,4,4a,5,6-hexahydro-[1,4]oxazino[4,3-a][1,5]naphthyridin-9-yl)-4-methylphenyl)-2-(trifluoromethyl)isonicotinamide]",77
15,"Cc1ccc(NC(=O)c2ccnc(C(F)(F)F)c2)cc1-c1cnc2c(c1)N1CCOC[C@@H]1C(F)(F)[C@@H]2O [Example 168, N-(3-((4aR,6R)-5,5-difluoro-6-hydroxy-1,2,4,4a,5,6-hexahydro-[1,4]oxazino[4,3-a][1,5]naphthyridin-9-yl)-4-methylphenyl)-2-(trifluoromethyl)isonicotinamide]",770
16,"CCN1C(=O)[C@H]2COCC[C@@H]2c2cc(-c3cc(NC(=O)c4ccnc(C(F)(F)F)c4)ccc3C)cnc21 [Example 236, N-(3-((4aR,10bS)-6-ethyl-5-oxo-1,4,4a,5,6,10b-hexahydro-2H-pyrano[3,4-c][1,8]naphthyridin-9-yl)-4-methylphenyl)-2-(trifluoromethyl)isonicotinamide]",300
17,"CCN1C(=O)Cc2nncn2-c2cc(-c3cc(NC(=O)c4ccnc(C(F)(F)F)c4)ccc3C)cnc21 [Example 237, N-(3-(6-ethyl-5-oxo-5,6-dihydro-4H-pyrido[2,3-b][1,2,4]triazo1o[4,3-d][1,4]diazepin-9-yl)-4-methylphenyl)-2-(trifluoromethyl) isonicotinamide]",1300
18,"CCN1C(=O)Cc2nncn2-c2cc(-c3cc(NC(=O)c4cccc(C(F)(F)F)c4)cnc3C)cnc21 [Example 238, N-(5-(6-ethyl-5-oxo-5,6-dihydro-4H-pyrido[2,3-b][1,2,4]triazo1o[4,3-d][1,4]diazepin-9-yl)-6-methylpyridin-3-yl)-3-(trifluoromethyl) benzamide]",2700
19,"CCN1C(=O)C(C)(C)c2nncn2-c2cc(-c3cc(NC(=O)c4ccnc(C(F)(F)F)c4)ccc3C)cnc21 [Example 239, N-(3-(6-ethyl-4,4-dimethyl-5-oxo-5,6-dihydro-4H-pyrido[2,3-b][1,2,4]-triazolo[4,3-d][1,4]diazepin-9-yl)-4 methylphenyl)-2-(trifluoromethyl) isonicotinamide]",4700
20,"CCN1C(=O)C(C)(C)c2nncn2-c2cc(-c3cc(NC(=O)c4cccc(C(F)(F)F)c4)cnc3C)cnc21 [Example 240, N-(5-(6-ethyl-4,4-dimethyl-5-oxo-5,6-dihydro-4H-pyrido[2,3-b][1,2,4]triazolo[4,3-d][1,4]diazepin-9-yl)-6-methylpyridin-3-yl)-3-(trifluoromethyl) benzamide]",10600
21,"CCN1Cc2nncn2-c2cc(-c3cc(NC(=O)c4ccnc(C(F)(F)F)c4)ccc3C)cnc2C1=O [Example 241, N-(3-(5-ethyl-6-oxo-5,6-dihydro-4H-pyrido[2,3-f][1,2,4]-triazolo[4,3-a][1,4]diazepin-9-yl)-4-methylphenyl)-2-(trifluoromethyl) isonicotinamide]",9500
22,"CCN1C(=O)N2COCCC2(C)c2cc(-c3cc(NC(=O)c4ccnc(C(F)(F)F)c4)ccc3C)ccc21 (centres unmarked) [Example 242, N-(3-(7-ethyl-11b-methyl-6-oxo-1,2,4,6,7,11b-hexahydro-[1,3]oxazino[3,4-c]quinazolin-10-yl)-4-methylphenyl)-2-(trifluoromethyl) isonicotinamide]",300
23,CCN1C(=O)N2COCCC2(C)c2cc(-c3cc(NC(=O)c4cccc(C(F)(F)F)c4)cnc3C)ccc21 (centres unmarked) [Example 243],600
24,"CCN1C(=O)N2COCCC2(C)c2cc(-c3cc(NC(=O)c4ccnc(C(F)(F)F)c4)ccc3C)ccc21 (centres unmarked) [Example 244, N-(3-(7-ethyl-11b-methyl-6-oxo-1,2,4,6,7,11b-hexahydro-[1,3]oxazino[3,4-c]quinazolin-10-yl)-4-methylphenyl)-2-(trifluoromethyl) isonicotinamide]",100
25,"CCN1C(=O)N2COCCC2(C)c2cc(-c3cc(NC(=O)c4cccc(C(F)(F)F)c4)cnc3C)ccc21 (centres unmarked) [Example 245, N-(5-(7-ethyl-11b-methyl-6-oxo-1,2,4,6,7,11b-hexahydro-[1,3]oxazino[3,4-c]quinazolin-10-yl)-6-methylpyridin-3-yl)-3-(trifluoromethyl) benzamide]",200
26,"CCN1C(=O)C2CCOCCC2c2cc(-c3cc(NC(=O)c4ccnc(C(F)(F)F)c4)ccc3C)cnc21 (stereo not drawn) [Example 246, N-(3-((5a, 11b-cis)-7-ethyl-6-oxo-1,2,4,5,5a,6,7,11b-octahydrooxepino [4,5-c][1,8]naphthyridin-10-yl)-4-methylphenyl)-2-(trifluoromethyl) isonicotinamide]",200
